From ChEMBL document CHEMBL3885861, “Open TG-GATES”

Species: Rattus norvegicus
Assay: Open TG-GATES - Regimen: Daily Repeat
Format: toxicity, organism-based, Sprague-Dawley
Design: regimen Daily Repeat, gender Male, age 6 weeks
Settings: in vivo, po, route gavage; for APTT / Bas / Eos / Fbg / Hb / Ht / Lym / MCH / MCHC / MCV / Mono / Neu / PT / Plat / RBC / Ret / WBC: tissue Blood; for KIDNEY_L / KIDNEY_R / KIDNEY_TOTAL: tissue Kidney; for LIVER: tissue Liver; for ALP / ALT / AST / BUN / CRE / DBIL / GLC / K / Na / PL / RALB / TBIL / TC / TG / TP / gamma-GTP: tissue Plasma
[1] = 0 mg/kg, 72 h, dose level Control, time 3 day
[2] = 0 mg/kg, […], dose level Control, time 7 day
[3] = 0 mg/kg, […], dose level Control, time 14 day
[4] = 0 mg/kg, […], dose level Control, time 28 day
[5] = 25 mg/kg, 72 h, dose level Low, time 3 day
[6] = 25 mg/kg, […], dose level Low, time 7 day
[7] = 25 mg/kg, […], dose level Low, time 14 day
[8] = 25 mg/kg, […], dose level Low, time 28 day

SMILES: CN1C(=O)CN=C(c2ccccc2)c2cc(Cl)ccc21 [DIAZEPAM]
- TERMINAL_BW [1]: 246.7 g
- APTT [1]: 16.3 s
- Bas [1]: 0%
- Eos [1]: 1.2%
- Fbg [1]: 235.6 mg/dL
- Hb [1]: 13.5 g/dL
- Ht [1]: 40.6%
- Lym [1]: 78.6%
- MCH [1]: 21.4 pg
- MCHC [1]: 33.2%
- MCV [1]: 64.4 fL
- Mono [1]: 6.4%
- Neu [1]: 14.2%
- PT [1]: 12 s
- Plat [1]: 114.2 x10_4/uL
- RBC [1]: 630.6 x10_4/ul
- Ret [1]: 6.6%
- WBC [1]: 104 x10_2/uL
- KIDNEY_L [1]: 1.1 g
- KIDNEY_R [1]: 1.1 g
- KIDNEY_TOTAL [1]: 2.2 g
- LIVER [1]: 12.5 g
- ALP [1]: 817.2 IU/L
- ALT [1]: 34.2 IU/L
- AST [1]: 59.4 IU/L
- BUN [1]: 17.2 mg/dL
- CRE [1]: 0.5 mg/dL
- DBIL [1]: 0.006 mg/dL
- GLC [1]: 198.8 mg/dL
- K [1]: 5 meq/L
- Na [1]: 138.9 meq/L
- PL [1]: 154 mg/dL
- RALB [1]: 4 g/dL
- TBIL [1]: 0.3 mg/dL
- TC [1]: 78.4 mg/dL
- TG [1]: 115.4 mg/dL
- TP [1]: 6 g/dL
- gamma-GTP [1]: 1.6 IU/L
- TERMINAL_BW [2]: 289.2 g
- TERMINAL_BW [3]: 333.2 g
- TERMINAL_BW [4]: 416.1 g
- APTT [2]: 16 s
- Bas [2]: 0%
- Eos [2]: 1%
- Fbg [2]: 237.8 mg/dL
- Hb [2]: 14.2 g/dL
- Ht [2]: 42.8%
- Lym [2]: 79.2%
- MCH [2]: 21.8 pg
- MCHC [2]: 33.2%
- MCV [2]: 65.6 fL
- Mono [2]: 9.4%
- Neu [2]: 11%
- PT [2]: 11.4 s
- Plat [2]: 106.5 x10_4/uL
- RBC [2]: 653.4 x10_4/ul
- Ret [2]: 6.3%
- WBC [2]: 120.8 x10_2/uL
- APTT [3]: 16.4 s
- Bas [3]: 0%
- Eos [3]: 0.6%
- Fbg [3]: 234 mg/dL
- Hb [3]: 15.2 g/dL
- Ht [3]: 45.6%
- Lym [3]: 80.6%
- MCH [3]: 20.9 pg
- MCHC [3]: 33.3%
- MCV [3]: 62.9 fL
- Mono [3]: 3.6%
- Neu [3]: 14.8%
- PT [3]: 12 s
- Plat [3]: 92.8 x10_4/uL
- RBC [3]: 725.4 x10_4/ul
- Ret [3]: 4.5%
- WBC [3]: 149.8 x10_2/uL
- APTT [4]: 17 s
- Bas [4]: 0%
- Eos [4]: 1.2%
- Fbg [4]: 227.2 mg/dL
- Hb [4]: 15.8 g/dL
- Ht [4]: 47.5%
- Lym [4]: 83.6%
- MCH [4]: 19 pg
- MCHC [4]: 33.3%
- MCV [4]: 57 fL
- Mono [4]: 6.4%
- Neu [4]: 9%
- PT [4]: 12.3 s
- Plat [4]: 102.6 x10_4/uL
- RBC [4]: 833 x10_4/ul
- Ret [4]: 2.2%
- WBC [4]: 146.4 x10_2/uL
- KIDNEY_L [2]: 1.2 g
- KIDNEY_R [2]: 1.3 g
- KIDNEY_TOTAL [2]: 2.5 g
- KIDNEY_L [3]: 1.3 g
- KIDNEY_R [3]: 1.3 g
- KIDNEY_TOTAL [3]: 2.7 g
- KIDNEY_L [4]: 1.4 g
- KIDNEY_R [4]: 1.5 g
- KIDNEY_TOTAL [4]: 2.9 g
- LIVER [2]: 14.8 g
- LIVER [3]: 14.8 g
- LIVER [4]: 17.1 g
- ALP [2]: 843.2 IU/L
- ALT [2]: 37.2 IU/L
- AST [2]: 60.4 IU/L
- BUN [2]: 17.8 mg/dL
- CRE [2]: 0.5 mg/dL
- DBIL [2]: 0.02 mg/dL
- GLC [2]: 188.8 mg/dL
- K [2]: 5.1 meq/L
- Na [2]: 137.6 meq/L
- PL [2]: 184.8 mg/dL
- RALB [2]: 4.2 g/dL
- TBIL [2]: 0.3 mg/dL
- TC [2]: 92.8 mg/dL
- TG [2]: 164.6 mg/dL
- TP [2]: 6.4 g/dL
- gamma-GTP [2]: 1.6 IU/L
- ALP [3]: 714 IU/L
- ALT [3]: 37.4 IU/L
- AST [3]: 68.2 IU/L
- BUN [3]: 19.4 mg/dL
- CRE [3]: 0.6 mg/dL
- DBIL [3]: 0.01 mg/dL
- GLC [3]: 183.2 mg/dL
- K [3]: 4.6 meq/L
- Na [3]: 141.1 meq/L
- PL [3]: 149.2 mg/dL
- RALB [3]: 4 g/dL
- TBIL [3]: 0.3 mg/dL
- TC [3]: 72 mg/dL
- TG [3]: 131.8 mg/dL
- TP [3]: 6.4 g/dL
- gamma-GTP [3]: 1 IU/L
- ALP [4]: 591.2 IU/L
- ALT [4]: 28.4 IU/L
- AST [4]: 54.2 IU/L
- BUN [4]: 19.8 mg/dL
- CRE [4]: 0.7 mg/dL
- DBIL [4]: 0.002 mg/dL
- GLC [4]: 182.8 mg/dL
- K [4]: 4.5 meq/L
- Na [4]: 139.4 meq/L
- PL [4]: 147.8 mg/dL
- RALB [4]: 4.1 g/dL
- TBIL [4]: 0.2 mg/dL
- TC [4]: 67.2 mg/dL
- TG [4]: 165.6 mg/dL
- TP [4]: 6.6 g/dL
- gamma-GTP [4]: 1.2 IU/L
- TERMINAL_BW [5]: 248 g
- APTT [5]: 16.5 s
- Bas [5]: 0%
- Eos [5]: 1%
- Fbg [5]: 230 mg/dL
- Hb [5]: 13.9 g/dL
- Ht [5]: 42%
- Lym [5]: 84%
- MCH [5]: 21.5 pg
- MCHC [5]: 33.2%
- MCV [5]: 64.8 fL
- Mono [5]: 3.8%
- Neu [5]: 11.2%
- PT [5]: 12 s
- Plat [5]: 100.7 x10_4/uL
- RBC [5]: 647.8 x10_4/ul
- Ret [5]: 6.3%
- WBC [5]: 155.1 x10_2/uL
- KIDNEY_L [5]: 1.1 g
- KIDNEY_R [5]: 1.1 g
- KIDNEY_TOTAL [5]: 2.1 g
- LIVER [5]: 12 g
- ALP [5]: 908.6 IU/L
- ALT [5]: 37.4 IU/L
- AST [5]: 63.4 IU/L
- BUN [5]: 16.8 mg/dL
- CRE [5]: 0.6 mg/dL
- DBIL [5]: 0.016 mg/dL
- GLC [5]: 193.2 mg/dL
- K [5]: 4.7 meq/L
- Na [5]: 139.3 meq/L
- PL [5]: 150.4 mg/dL
- RALB [5]: 4.1 g/dL
- TBIL [5]: 0.3 mg/dL
- TC [5]: 81.4 mg/dL
- TG [5]: 76.4 mg/dL
- TP [5]: 6 g/dL
- gamma-GTP [5]: 1 IU/L
- TERMINAL_BW [6]: 279.2 g
- TERMINAL_BW [7]: 331.4 g
- TERMINAL_BW [8]: 411.1 g
- APTT [6]: 16.6 s
- Bas [6]: 0%
- Eos [6]: 0.8%
- Fbg [6]: 223 mg/dL
- Hb [6]: 14.2 g/dL
- Ht [6]: 42.5%
- Lym [6]: 79.6%
- MCH [6]: 20.8 pg
- MCHC [6]: 33.4%
- MCV [6]: 62.3 fL
- Mono [6]: 3.8%
- Neu [6]: 16.2%
- PT [6]: 11.4 s
- Plat [6]: 116.1 x10_4/uL
- RBC [6]: 681.6 x10_4/ul
- Ret [6]: 5.7%
- WBC [6]: 115.6 x10_2/uL
- APTT [7]: 16.6 s
- Bas [7]: 0%
- Eos [7]: 0.8%
- Fbg [7]: 225.8 mg/dL
- Hb [7]: 14.8 g/dL
- Ht [7]: 44.6%
- Lym [7]: 83.2%
- MCH [7]: 20.1 pg
- MCHC [7]: 33.3%
- MCV [7]: 60.3 fL
- Mono [7]: 5.6%
- Neu [7]: 10.6%
- PT [7]: 12 s
- Plat [7]: 110.6 x10_4/uL
- RBC [7]: 740 x10_4/ul
- Ret [7]: 4.1%
- WBC [7]: 120.7 x10_2/uL
- APTT [8]: 18 s
- Bas [8]: 0%
- Eos [8]: 0.6%
- Fbg [8]: 223.8 mg/dL
- Hb [8]: 15.8 g/dL
- Ht [8]: 47.2%
- Lym [8]: 83.4%
- MCH [8]: 19.3 pg
- MCHC [8]: 33.4%
- MCV [8]: 57.7 fL
- Mono [8]: 3.6%
- Neu [8]: 12%
- PT [8]: 12.1 s
- Plat [8]: 102.8 x10_4/uL
- RBC [8]: 818.6 x10_4/ul
- Ret [8]: 2.7%
- WBC [8]: 154.6 x10_2/uL
- KIDNEY_L [6]: 1.2 g
- KIDNEY_R [6]: 1.2 g
- KIDNEY_TOTAL [6]: 2.4 g
- KIDNEY_L [7]: 1.3 g
- KIDNEY_R [7]: 1.3 g
- KIDNEY_TOTAL [7]: 2.6 g
- KIDNEY_L [8]: 1.4 g
- KIDNEY_R [8]: 1.4 g
- KIDNEY_TOTAL [8]: 2.8 g
- LIVER [6]: 14.1 g
- LIVER [7]: 14.8 g
- LIVER [8]: 16.9 g
- ALP [6]: 886.2 IU/L
- ALT [6]: 33.6 IU/L
- AST [6]: 62 IU/L
- BUN [6]: 18.8 mg/dL
- CRE [6]: 0.5 mg/dL
- DBIL [6]: 0.024 mg/dL
- GLC [6]: 188.2 mg/dL
- K [6]: 4.9 meq/L
- Na [6]: 137.7 meq/L
- PL [6]: 170.4 mg/dL
- RALB [6]: 4.1 g/dL
- TBIL [6]: 0.3 mg/dL
- TC [6]: 77.8 mg/dL
- TG [6]: 168.6 mg/dL
- TP [6]: 6.1 g/dL
- gamma-GTP [6]: 1.2 IU/L
- ALP [7]: 848.8 IU/L
- ALT [7]: 34.4 IU/L
- AST [7]: 64.4 IU/L
- BUN [7]: 18.4 mg/dL
- CRE [7]: 0.6 mg/dL
- DBIL [7]: 0.002 mg/dL
- GLC [7]: 190.2 mg/dL
- K [7]: 4.4 meq/L
- Na [7]: 140.3 meq/L
- PL [7]: 148.2 mg/dL
- RALB [7]: 4 g/dL
- TBIL [7]: 0.3 mg/dL
- TC [7]: 66.4 mg/dL
- TG [7]: 154.8 mg/dL
- TP [7]: 6.1 g/dL
- gamma-GTP [7]: 0.8 IU/L
- ALP [8]: 483.4 IU/L
- ALT [8]: 30.6 IU/L
- AST [8]: 60.4 IU/L
- BUN [8]: 19.8 mg/dL
- CRE [8]: 0.6 mg/dL
- DBIL [8]: 0.016 mg/dL
- GLC [8]: 201.4 mg/dL
- K [8]: 4.3 meq/L
- Na [8]: 140.7 meq/L
- PL [8]: 135.6 mg/dL
- RALB [8]: 4 g/dL
- TBIL [8]: 0.3 mg/dL
- TC [8]: 63.6 mg/dL
- TG [8]: 134.2 mg/dL
- TP [8]: 6.5 g/dL
- gamma-GTP [8]: 1 IU/L
